From PMC9523973 (Cell reports, 2022)
“Also recorded” adds a separate entry of the source. Like-named read-outs stand apart in the source and are kept apart here. One block for each compound: values may come before it.

Legend:
[1] = system: endogenously expressed NaVs in cultured DRG neurons; experiment: Whole cell voltage clamp of sodium current; type: cell-based, mouse; conditions: for IC50: read-out: IC50 of DRG INa inhibition
[2] = system: NaV1.7 DII S969A and DIV D1761A; type: cell-based, human; conditions: vs WT NaV1.7
NaV1.7 D1458A = NaV1.7 D1458A (Homo sapiens, UniProt Q15858, D1458A); experiment: Voltage clamp of NaV1.7 alanine substitution in domain III; type: cell-based; conditions: vs WT NaV1.7
NaV1.7 D1458A, sequence (Q15858 whole entry D1458A, the tested form may be a part): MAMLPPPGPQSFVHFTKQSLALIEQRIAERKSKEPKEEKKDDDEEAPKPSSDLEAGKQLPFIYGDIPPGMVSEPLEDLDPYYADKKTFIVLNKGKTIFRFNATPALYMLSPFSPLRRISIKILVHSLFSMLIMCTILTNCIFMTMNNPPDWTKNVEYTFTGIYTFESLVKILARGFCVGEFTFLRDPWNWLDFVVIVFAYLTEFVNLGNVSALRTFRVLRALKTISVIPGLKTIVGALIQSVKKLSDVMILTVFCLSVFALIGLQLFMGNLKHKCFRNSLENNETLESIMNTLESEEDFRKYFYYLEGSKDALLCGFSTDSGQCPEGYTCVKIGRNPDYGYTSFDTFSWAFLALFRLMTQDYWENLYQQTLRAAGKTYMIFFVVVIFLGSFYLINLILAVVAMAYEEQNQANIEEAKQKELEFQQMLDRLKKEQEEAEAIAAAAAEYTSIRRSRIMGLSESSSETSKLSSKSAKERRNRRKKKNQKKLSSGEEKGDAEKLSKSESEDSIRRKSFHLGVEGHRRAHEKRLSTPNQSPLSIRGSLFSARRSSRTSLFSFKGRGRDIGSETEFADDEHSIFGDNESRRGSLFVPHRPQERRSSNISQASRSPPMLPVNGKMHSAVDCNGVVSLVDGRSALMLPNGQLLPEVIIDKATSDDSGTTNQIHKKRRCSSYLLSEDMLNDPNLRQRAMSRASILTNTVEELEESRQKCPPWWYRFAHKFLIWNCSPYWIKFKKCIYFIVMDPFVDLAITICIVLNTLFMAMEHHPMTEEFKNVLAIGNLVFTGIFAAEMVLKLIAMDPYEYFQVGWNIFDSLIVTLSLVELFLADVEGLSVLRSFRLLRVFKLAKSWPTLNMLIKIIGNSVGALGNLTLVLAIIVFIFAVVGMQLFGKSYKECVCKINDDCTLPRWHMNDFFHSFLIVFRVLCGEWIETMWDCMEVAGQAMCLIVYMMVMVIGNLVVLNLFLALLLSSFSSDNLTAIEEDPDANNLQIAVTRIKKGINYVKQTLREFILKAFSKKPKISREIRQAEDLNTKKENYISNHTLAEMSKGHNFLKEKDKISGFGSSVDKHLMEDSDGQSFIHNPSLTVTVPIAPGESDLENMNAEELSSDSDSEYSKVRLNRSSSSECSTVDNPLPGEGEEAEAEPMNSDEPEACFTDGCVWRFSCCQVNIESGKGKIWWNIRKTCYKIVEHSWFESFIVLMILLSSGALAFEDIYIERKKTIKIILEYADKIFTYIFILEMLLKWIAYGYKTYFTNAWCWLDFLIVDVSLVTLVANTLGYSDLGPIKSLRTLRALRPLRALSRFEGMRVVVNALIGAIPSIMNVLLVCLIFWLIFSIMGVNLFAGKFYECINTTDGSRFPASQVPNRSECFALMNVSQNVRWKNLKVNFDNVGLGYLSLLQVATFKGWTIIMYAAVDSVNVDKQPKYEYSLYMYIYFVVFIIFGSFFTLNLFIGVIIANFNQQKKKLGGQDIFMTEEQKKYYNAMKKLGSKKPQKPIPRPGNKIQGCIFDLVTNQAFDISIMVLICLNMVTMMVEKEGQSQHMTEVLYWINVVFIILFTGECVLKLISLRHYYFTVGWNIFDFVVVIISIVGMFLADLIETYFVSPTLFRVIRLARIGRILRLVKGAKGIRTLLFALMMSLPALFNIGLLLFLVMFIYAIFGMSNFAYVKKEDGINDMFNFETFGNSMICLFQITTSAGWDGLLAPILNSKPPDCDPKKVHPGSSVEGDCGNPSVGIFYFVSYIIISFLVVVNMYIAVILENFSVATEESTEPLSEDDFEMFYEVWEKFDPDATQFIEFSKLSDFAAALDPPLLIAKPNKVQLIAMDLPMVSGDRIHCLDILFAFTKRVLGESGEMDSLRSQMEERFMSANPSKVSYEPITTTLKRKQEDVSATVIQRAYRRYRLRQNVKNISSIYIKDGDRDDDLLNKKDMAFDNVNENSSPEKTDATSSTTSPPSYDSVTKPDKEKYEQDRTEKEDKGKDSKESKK
NaV1.7 D1458A, sequence (Q07699 19-218 partner): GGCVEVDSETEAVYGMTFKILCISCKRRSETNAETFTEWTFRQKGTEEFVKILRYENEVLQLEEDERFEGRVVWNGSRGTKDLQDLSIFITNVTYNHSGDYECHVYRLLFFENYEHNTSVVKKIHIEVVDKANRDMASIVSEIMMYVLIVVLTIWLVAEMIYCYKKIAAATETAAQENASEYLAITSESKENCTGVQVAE

[3] = target: NaV1.7 S969A:D1761A double mutant (Homo sapiens, UniProt Q15858, E1761A/S969A); type: cell-based; conditions: read-out: IC50 of INa inhibition, S969A:D1761A double mutant channels
NaV1.7 S969A:D1761A double mutant (Homo sapiens, UniProt Q15858, E1761A/S969A), sequence (Q15858 whole entry S969A/E1761A): as the sequence (Q15858 whole entry D1458A, the tested form may be a part) above, with S969A, A1458D, E1761A counted along it
NaV1.7 S969A:D1761A double mutant (Homo sapiens, UniProt Q15858, E1761A/S969A), sequence (Q07699 19-218 partner): as the sequence (Q07699 19-218 partner) above

[4] = system: NaV1.7 S969A:D1761A double mutant; type: cell-based, human
NaV1.7 F1748A and Y1755A = experiment: Voltage clamp of NaV1.7 local anesthetic binding site mutations; type: cell-based, human; conditions: vs WT NaV1.7
DRG action potentials = experiment: Current clamp recording of cultured DRG neuron action potentials; type: cell-based, mouse
[5] = system: knee hyperalgesia in mice after DMM surgery; experiment: In vivo osteoarthritis pain model; parameters: species or system mouse; conditions: for knee hyperalgesia vs vehicle, 30 minutes after injection / knee withdrawal threshold vs vehicle through 3 hours: 50 μM intra-articular in 0.1% DMSO
human NaV1.7 = human NaV1.7 (Homo sapiens, UniProt Q15858); experiment: Voltage clamp of expressed WT NaV1.7 INa
human NaV1.7, sequence (Q15858 whole entry): as the sequence (Q15858 whole entry D1458A, the tested form may be a part) above, with A1458D counted along it
human NaV1.7, sequence (Q07699 19-218 partner): as the sequence (Q07699 19-218 partner) above

[6] = target: human NaV1.7 tamoxifen receptor (Homo sapiens, UniProt Q15858); experiment: NaV1.7 tritium-labeled tamoxifen competitive binding assay; conditions: competition with H^3-Tam
human NaV1.7 tamoxifen receptor, sequence (Q15858 whole entry): as the sequence (Q15858 whole entry D1458A, the tested form may be a part) above, with A1458D counted along it

[7] = system: knee hyperalgesia in mice after DMM surgery; conditions: 20 mg/kg, ~0.85M, ref Miller et al., 2018; cited from earlier work

Compound: CC/C(=C(\c1ccccc1)c1ccc(OCCNC)cc1)c1ccccc1 [ND-Tam, N-desmethyl tamoxifen]
inhibition of DRG neuron INa (in words) [1]: inhibit DRG neuron INa
frequency dependence of DRG INa inhibition ([1]; 300 nM at 0.1, 10 and 20 Hz): enhanced current inhibition at greater depolarization frequencies
block of the total INa ([1]; 1 μM): ≈ 45%
change in half-maximal activation of conductance (GV1/2) ([1]; 1 μM): no change
voltage-dependence of inactivation after drug treatment ([1]; 1 μM): −51.9 ± 0.4 mV
half-maximal conductance-voltage relationship (V1/2) ([1]; 1 μM ND-Tam conditions): −37.7 ± 0.4 mV
IC50 ([1]; −40 mV holding potential): 3.9 nM
IC50 ([1]; −60 mV holding potential): 112 nM
INa that did not recover after removing drug from the bath ([1]; waiting 5 minutes after removal): 86 ± 5%
reduced potency of INa inhibition [2]: 3–7 times
change in potency or slope (NaV1.7 D1458A): no change in potency or slope
IC50 [3]: 36000 nM
potency reduction compared to WT NaV1.7 [4]: more than 21 times
change in ND-Tam potency (NaV1.7 F1748A and Y1755A): little change
impact on the resting membrane potential (DRG action potentials; 100 nM, spontaneously firing neurons): insignificant impact
reduction of the frequency of spontaneous action potentials (DRG action potentials; 100 nM, three-minute extracellular application, no current injected): 91%
inhibition of action potential frequency and peak amplitude after washout (DRG action potentials; control saline for 2 minutes after drug): persistent
area under the curve analysis of the first 3.5 hours post injection ([5]; 0.5 μM, after 3rd daily injection, compared to lidocaine or vehicle): superior efficacy
knee hyperalgesia vs vehicle ([5]; 50 μM (~0.002 mg/kg) intra-articular, vehicle 50% EtOH, 4 weeks after DMM, 30 minutes after injection): rapidly inhibited knee hyperalgesia pain; also recorded: provided relief from hyperalgesia
knee hyperalgesia vs vehicle, 30 minutes after injection ([5]; 4 weeks after DMM): effectively inhibited knee hyperalgesia
knee withdrawal threshold vs vehicle through 3 hours ([5]; 4 weeks after DMM): remained elevated compared to vehicle control
Hill slope coefficient of NaV1.7 INa inhibition (human NaV1.7): 2.2
IC50 (human NaV1.7; read-out: IC50 of INa inhibition, WT NaV1.7): 1700 nM

binding to NaV1.7 (in words) [6]: specific binding
Compound: CNCCOc1ccccc1 [NM2P, N-methyl 2 phenoxyethanamine]

Hill slope coefficient of NaV1.7 INa inhibition (human NaV1.7): 1.9
Compound: CC/C(=C(\c1ccc(O)cc1)c1ccc(OCCN(C)C)cc1)c1ccccc1 [4OH-Tam, 4-hydroxy tamoxifen]
inhibition of DRG neuron INa (in words) [1]: inhibit DRG neuron INa

Compound: 4-hydroxy-N-desmethyl benzophenone [4OH-ND-BP]
binding to NaV1.7 (in words) [6]: specific binding

Compound: C=C(C)[C@@H]1CCC(C)=C[C@H]1c1c(O)cc(CCCCC)cc1O [CBD, cannabidiol, reference compound]
knee hyperalgesia vs vehicle, 30 minutes after injection ([5]; 4 weeks after DMM): effectively inhibited knee hyperalgesia
knee withdrawal threshold vs vehicle through 3 hours ([5]; 4 weeks after DMM): remained elevated compared to vehicle control

binding to NaV1.7 (in words) [6]: specific binding
Compound: O=C(c1ccccc1)c1ccc(O)cc1 [4OH-BP, 4-hydroxy benzophenone]

Compound: CCN(CC)CC(=O)Nc1c(C)cccc1C [lidocaine, reference compound]
knee hyperalgesia vs vehicle, 30 minutes after injection ([5]; 4 weeks after DMM): effectively inhibited knee hyperalgesia
knee withdrawal threshold vs vehicle through 3 hours ([5]; 4 weeks after DMM): remained elevated compared to vehicle control
knee hyperalgesia after local injection of a high dose [7]: able to acutely reverse knee hyperalgesia
